# Data: patent US11584765B2 (priority 2017, dated 2023)
# Test system: C57BL/6 mice
# Assay: animal or person
# Type: in vivo
# Details: Mus musculus, sc, 0.5 h, s.c. administration, 30 min, 55° C. water, read-out: ED50 (mg/kg) at 30 min on C57BL/6 mice in Warm-water Tail-flick Test
row,Compound,ED50
1,"c1ccc(C2(CCc3cccs3)CCN(Cc3cccnc3)C2)nc1 (stereo not drawn) [Compound 390, 2-(1-(pyridin-3-ylmethyl)-3-(2-(thiophen-2-yl)ethyl)pyrrolidin-3-yl)pyridine]",> 10 mg/kg
2,"Cc1ccc(CN2CC[C@@](CCc3ccsc3)(C3CCCO3)C2)cn1.Cl (stereo partly drawn) [Compound 391, 2-methyl-5-(((3R)-3-(tetrahydrofuran-2-yl)-3-(2-(thiophen-3-yl)ethyl)pyrrolidin-1-yl)methyl)pyridine HCl]",< 10 mg/kg
3,"FC(F)OC[C@@]1(CCc2cccs2)CCN(Cc2cccnc2)C1 [Compound 392, (S)-3-((3-((difluorometh-oxy)methyl)-3-(2-(thiophen-2-yl)ethyl)pyrrolidin-1-yl)methyl)pyridine]",< 10 mg/kg
4,"CCOC1(CCc2cccs2)CCN(Cc2cccnc2)C1 (stereo not drawn) [Compound 393, 3-((3-ethoxy-3-(2-(thiophen-2-yl)ethyl)pyrrolidin-1-yl)methyl)pyridine]",> 10 mg/kg
5,"CCOCC1(CCc2cccs2)CN(Cc2cccnc2)C1 [Compound 394, 3-((3-(ethoxymethyl)-3-(2-(thiophen-2-yl)ethyl)azetidin-1-yl)methyl)pyridine]",> 10 mg/kg
6,"CCOC[C@@]1(CCc2cccs2)CCN(C2(c3cccnc3)CC2)C1 [Compound 395, (S)-3-(1-(3-(ethoxymethyl)-3-(2-(thiophen-2-yl)ethyl)pyrrolidin-1-yl)cyclopropyl)pyridine]",< 10 mg/kg
7,"CC(C)(c1cccnc1)N1CCC(CCc2cccs2)(c2ccccn2)CC1 [Compound 396, 2-(1-(2-(pyridin-3-yl)propan-2-yl)-4-(2-(thiophen-2-yl)ethyl)piperidin-4-yl)pyridine]",< 10 mg/kg
8,"Cc1ccc(CN2C3CCC2CC(CCc2cccs2)(c2ccccn2)C3)cn1 (stereo not drawn) [Compound 397, 8-((6-methylpyridin-3-yl)methyl)-3-(pyridin-2-yl)-3-(2-(thiophen-2-yl)ethyl)-8-azabicyclo[3.2.1]octane]",> 10 mg/kg
9,"CCOC[C@@]1(CCc2ccc(F)cn2)CCN(C2(c3cnc4c(c3)CCCC4)CC2)C1 [Compound 398, (S)-3-(1-(3-(ethoxymethyl)-3-(2-(5-fluoropyridin-2-yl)ethyl)pyrrolidin-1-yl)cyclopropyl)-5,6,7,8-tetrahydroquinoline]",< 10 mg/kg
10,"CCOCC1(CCc2ccccc2)CCN(C(CC)(CC)c2ccc(C)nc2)CC1 [Compound 399, 5-(3-(4-(ethoxymethyl)-4-phenethylpiperidin-1-yl)pentan-3-yl)-2-methylpyridine]",> 10 mg/kg
11,"CCOCC1(CCc2ccccc2)CCN(C(CC)c2cnc(C)cc2CC)CC1 (stereo not drawn) [Compound 400, 5-(1-(4-(ethoxymethyl)-4-phenethylpiperidin-1-yl)propyl)-4-ethyl-2-methylpyridine]",< 10 mg/kg
12,"CCOC(C)(C)[C@@]1(CCc2cccs2)CCN(C(C)(C)c2ccc(C)nc2)C1 [Compound 402, (S)-5-(2-(3-(2-ethoxypropan-2-yl)-3-(2-(thiophen-2-yl)ethyl)pyrrolidin-1-yl)propan-2-yl)-2-methylpyridine]",< 10 mg/kg
13,"CCOC(C)(C)[C@@]1(CCc2cccs2)CCN(C(C)c2ccc(C)nc2C)C1 (stereo partly drawn) [Compound 403, 3-(1-((S)-3-(2-ethoxypropan-2-yl)-3-(2-(thiophen-2-yl)ethyl)pyrrolidin-1-yl)ethyl)-2,6-dimethylpyridine]",< 10 mg/kg
14,"CCOC[C@@]1(CCc2cccs2)CCN(Cc2c(C)ccnc2C)C1 [Compound 404, (S)-3-((3-(ethoxymethyl)-3-(2-(thiophen-2-yl)ethyl)pyrrolidin-1-yl)methyl)-2,4-dimethylpyridine]",< 10 mg/kg
15,"CCOC[C@@]1(CCc2cccs2)CCN(Cc2cccnn2)C1 [Compound 405, (S)-3-((3-(ethoxymethyl)-3-(2-(thiophen-2-yl)ethyl)pyrrolidin-1-yl)methyl)pyridazine]",> 10 mg/kg
16,"CCOC[C@@]1(CCc2cccnn2)CCN(Cc2cccnc2)C1 [Compound 406, (S)-3-(2-(3-(ethoxymethyl)-1-(pyridin-3-ylmethyl)pyrrolidin-3-yl)ethyl)pyridazine]",> 10 mg/kg
17,"CCOC[C@@]1(CCc2ccc(C)s2)CCN(Cc2cnn(C)c2)C1 [Compound 407, (S)-4-((3-(ethoxymethyl)-3-(2-(5-methylthiophen-2-yl)ethyl)pyrrolidin-1-yl)methyl)-1-methyl-1H-pyrazole]",< 10 mg/kg
18,"CCOC[C@@]1(CCc2ccc(C)s2)CCN(Cc2ccc(C)nc2)C1 [Compound 408, (S)-5-((3-(ethoxymethyl)-3-(2-(5-methylthiophen-2-yl)ethyl)pyrrolidin-1-yl)methyl)-2-methylpyridine]",< 10 mg/kg
19,"CCOC[C@@]1(CCc2ccc(C)s2)CCN(Cc2ccc(C)nc2C)C1 [Compound 409, (S)-3-((3-(ethoxymethyl)-3-(2-(5-methylthiophen-2-yl)ethyl)pyrrolidin-1-yl)methyl)-2,6-dimethylpyridine]",< 10 mg/kg
20,"c1ccc(C2(CCc3cccs3)CCN(Cc3cccnc3)CC2)nc1 [Compound 410, 2-(1-(pyridin-3-ylmethyl)-4-(2-(thiophen-2-yl)ethyl)piperidin-4-yl)pyridine]",< 10 mg/kg
21,"Cc1ccc(C(C)(C)N2CC[C@@](CO)(CCc3cccs3)C2)cn1 [Compound 411, (S)-(1-(2-(6-methylpyridin-3-yl)propan-2-yl)-3-(2-(thiophen-2-yl)ethyl)pyrrolidin-3-yl)methanol]",< 10 mg/kg

row,Compound,ED50
1,"OC[C@@]1(CCc2cccs2)CCN(Cc2cccnc2)C1 [Compound 412, (S)-(1-(pyridin-3-ylmethyl)-3-(2-(thiophen-2-yl)ethyl)pyrrolidin-3-yl)methanol]",< 10 mg/kg
2,"Cc1ccc(CN2CC[C@@](CO)(CCc3cccs3)C2)cn1 [Compound 413, (S)-(1-((6-methylpyridin-3-yl)methyl)-3-(2-(thiophen-2-yl)ethyl)pyrrolidin-3-yl)methanol]",< 10 mg/kg
3,"CC(c1cccnc1)N1CC[C@@](CO)(CCc2cccs2)C1 (stereo partly drawn) [Compound 414, ((3S)-1-(1-(pyridin-3-yl)ethyl)-3-(2-(thiophen-2-yl)ethyl)pyrrolidin-3-yl)methanol]",< 10 mg/kg
4,CC(C)(c1cccnc1)N1CC[C@@](CO)(CCc2cccs2)C1 [Compound 415],< 10 mg/kg
5,"CCOC[C@@]1(CCc2cccs2)CCN(Cc2c(C)cc(C)nc2C)C1 [Compound 416, (S)-3-((3-(ethoxymethyl)-3-(2-(thiophen-2-yl)ethyl)pyrrolidin-1-yl)methyl)-2,4,6-trimethylpyridine]",< 10 mg/kg
6,"Cn1cc(CN2CCC(CCc3ccccc3)(c3ccccn3)CC2)cn1 [Compound 417, 2-(1-((1-methyl-1H-pyrazol-4-yl)methyl)-4-phenethylpiperidin-4-yl)pyridine]",< 10 mg/kg
7,"Cc1ccc(CN2[C@@H](C)CC(CCc3ccc(F)cc3)(c3ccccn3)C[C@@H]2C)cn1 (stereo partly drawn) [Compound 418, 5-(((2S,6S)-4-(4-fluorophenethyl)-2,6-dimethyl-4-(pyridin-2-yl)piperidin-1-yl)methyl)-2-methylpyridine]",> 10 mg/kg
8,"CCOC[C@@]1(COc2ccccc2)CCN(Cc2ccc(C)nc2)C1 [Compound 419, (R)-5-((3-(ethoxymethyl)-3-(phenoxy-methyl)pyrrolidin-1-yl)methyl)-2-methylpyridine]",< 10 mg/kg
9,CCOC[C@@]1(CCc2ccccn2)CCN(Cc2cccnc2)C1 [Compound 420],< 10 mg/kg
10,"CCOC[C@@]1(CN(C)c2ccccc2)CCN(Cc2ccc(C)nc2)C1 [Compound 421, (S)-N-((3-(ethoxymethyl)-1-((6-methylpyridin-3-yl)methyl)pyrrolidin-3-yl)methyl)-N-methylaniline]",< 10 mg/kg
11,"CCOC[C@@]1(COc2ccc(F)cc2)CCN(Cc2ccc(C)nc2)C1 [Compound 426, (R)-5-((3-(ethoxymethyl)-3-((4-fluoro-phenoxy)methyl)pyrrolidin-1-yl)methyl)-2-methylpyridine]",< 10 mg/kg
12,"CCOCC1(CCC2CC2)CCN(Cc2ccc(C)nc2)C1 (stereo not drawn) [Compound 427, 5-((3-(2-cyclopropylethyl)-3-(ethoxy-methyl)pyrrolidin-1-yl)methyl)-2-methylpyridine]",< 10 mg/kg
13,"CCOC[C@@]1(CCc2cccs2)CCN(Cc2cccnc2C)C1 [Compound 428, (S)-3-((3-(ethoxymethyl)-3-(2-(thiophen-2-yl)ethyl)pyrrolidin-1-yl)methyl)-2-methylpyridine]",< 10 mg/kg
14,"CCOCC1(CCc2cccs2)CN(Cc2ccc(C)nc2)C1 [Compound 429, 5-((3-(ethoxymethyl)-3-(2-(thiophen-2-yl)ethyl)azetidin-1-yl)methyl)-2-methylpyridine]",< 10 mg/kg
15,"CCOC[C@@]1(CCc2cccs2)CCN(Cc2cnn(C)c2)C1.Cl [Compound 430, (S)-4-((3-(ethoxymethyl)-3-(2-(thiophen-2-yl)ethyl)pyrrolidin-1-yl)methyl)-1-methyl-1H-pyrazole HCl]",< 10 mg/kg
16,"CCOCC1(CCC2CC2)CCN(C(C)(C)c2ccc(C)nc2)C1 (stereo not drawn) [Compound 431, 5-(2-(3-(2-cyclopropylethyl)-3-(ethoxy-methyl)pyrrolidin-1-yl)propan-2-yl)-2-methylpyridine]",< 10 mg/kg
17,"Cc1ccc(CN2CCC(CCc3ccccc3)(c3ccccn3)CC2)cn1 [Compound 432, 2-methyl-5-((4-phenethyl-4-(pyridin-2-yl)piperidin-1-yl)methyl)pyridine]",< 10 mg/kg
18,"CC(C)(c1cccnc1)N1CCC(CCc2ccccc2)(c2ccccn2)CC1 [Compound 433, 2-(4-phenethyl-1-(2-(pyridin-3-yl)propan-2-yl)piperidin-4-yl)pyridine]",< 10 mg/kg
19,"CCOC[C@@]1(CCc2ccc(F)cc2)CCN(C2(c3ccc(C)nc3)CC2)C1 [Compound 434, (S)-5-(1-(3-(ethoxymethyl)-3-(4-fluoro-phenethyl)pyrrolidin-1-yl)cyclopropyl)-2-methylpyridine]",< 10 mg/kg
20,CCOC[C@@]1(CCc2ccc(F)s2)CCN(C2(c3ccc(C)nc3)CC2)C1 [Compound 435],< 10 mg/kg
21,"CCOC[C@@]1(CCc2ccc(F)cc2)CCN(C2(c3cnc(C)cc3CC)CC2)C1 [Compound 436, (S)-5-(1-(3-(ethoxymethyl)-3-(4-fluoro-phenethyl)pyrrolidin-1-yl)cyclopropyl)-4-ethyl-2-methylpyridine]",< 10 mg/kg
